Laboratory results taken from US8940742B2, “Heterocyclic compounds and uses thereof” (Infinity Pharmaceuticals, Inc., priority 2012, dated 2015).
pIC50: −log10 of the molar value.

Assays:
PI3K γ = molecular target: T1, PI3K γ (Homo sapiens, UniProt P48736); assay: PI3-Kinase Promega ADP-Glo Max assay; format: biochemical; conditions: 40 nM kinase, 3 mM ATP, 500 uM diC8-PtdInsP
T1 construct: purchased Millipore
Experimental: Promega ADP-Glo Max assay kit (Cat. No. V7002) was utilized to determine IC50 values for α, β, δ and γ isoforms of human Class I PI3 kinases (Millipore). […] Reactions were incubated at room temperature for 2 hours followed by addition of 25 uL of stop solution. After a 40-minute incubation at room temperature, 50 uL of Promega detection mix was added followed by incubation for 1 hour at room temperature. Plates were then read on Envision plate reader in luminescence mode. Data was converted to % inhibition using the following equation below:
[formula] where S is the sample luminescence, Pos is a positive control without added PI3K, Neg is the negative control without added compound. Data was then plotted as % inhibition vs compound concentration.
(§1) Certain compounds provided herein were tested in PI3-Kinase Promega Assay using procedures as described above to determine IC50 values for α, β, δ and/or γ isoforms.

Raw264.7 p110 γ = molecular target: T2, Raw264.7 p110 γ (Mus musculus, UniProt Q9JHG7); assay: Raw264.7 p110 γ cellular assay (phospho-AKT); format: cell-based; conditions: serum-starved RAW264.7 cells stimulated with C5a
T2 construct: reduction of phospho-AKT in stimulated RAW 264.7 cells; endogenous in cells; host or cells: RAW264.7 macrophages
Source text: (b) PI3K-γ Selective Assay
Briefly, serum-starved PAW264.7 cells are stimulated with a known GPCR agonist C5a. […] Cells can be treated with test compounds prior to, simultaneously with, or subsequent to the stimulation by C5a. RAW 264.7 cells respond to the complement component fragment C5a through activation of the C5a receptor, and the C5a receptor activates macrophages and induces cell migration.

RAJI p110 δ = RAJI p110 δ (Homo sapiens, UniProt O00329); assay: RAJI p110 δ cellular assay (phospho-AKT);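 also: potency based on lowered phosphorylated AKT in RAJI cells, as a readout of PI3K-δ dependent B-cell receptor signaling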
Source text: (a) PI3K-δ Selective Assay
Reduction of phospho-AKT is indicative of compounds that may inhibit B-cell proliferation and function in certain diseases.

PI3K α = molecular target: T3, PI3K α (Homo sapiens, UniProt P42336); assay: PI3-Kinase Promega ADP-Glo Max assay; format: biochemical; conditions: 20 nM kinase, 3 mM ATP, 500 uM diC8-PtdInsP
T3 construct: purchased Millipore
Experimental: (§2) Promega ADP-Glo Max assay kit (Cat. No. V7002) was utilized to determine IC50 values for α, β, δ and γ isoforms of human Class I PI3 kinases (Millipore). Samples of kinase (20 nM α or δ, 40 nM β or γ isoform) were incubated with compound for 15 minutes at room temperature in reaction buffer (15 mM HEPES pH 7.4, 20 mM NaCl, 1 mM EGTA, 0.02% Tween 20, 10 mM MgCl2, 0.2 mg/mL bovine-γ-globulins) followed by addition of ATP/diC8-PtdInsP mixture to give final concentrations of 3 mM ATP and 500 uM diC8-PtdInsP. Reactions were incubated at room temperature for 2 hours followed by addition of 25 uL of stop solution. After a 40-minute incubation at room temperature, 50 uL of Promega detection mix was added followed by incubation for 1 hour at room temperature. Plates were then read on Envision plate reader in luminescence mode. Data was converted to % inhibition using the following equation below:
(§3) [formula] where S is the sample luminescence, Pos is a positive control without added PI3K, Neg is the negative control without added compound. Data was then plotted as % inhibition vs compound concentration. Data fit to 4 parameter logistic equation to determine IC50 values: […]
as §1

PI3K δ = molecular target: T4, PI3K δ (Homo sapiens, UniProt O00329); assay: PI3-Kinase Promega ADP-Glo Max assay; format: biochemical; conditions: 20 nM kinase, 3 mM ATP, 500 uM diC8-PtdInsP
T4 construct: purchased Millipore
Experimental: as §2, §3, §1

PI3K β = molecular target: T5, PI3K β (Homo sapiens, UniProt P42338); assay: PI3-Kinase Promega ADP-Glo Max assay; format: biochemical; conditions: 40 nM kinase, 3 mM ATP, 500 uM diC8-PtdInsP
T5 construct: purchased Millipore
Experimental: as §2, §3, §1

T2 sequence (Q9JHG7 whole entry): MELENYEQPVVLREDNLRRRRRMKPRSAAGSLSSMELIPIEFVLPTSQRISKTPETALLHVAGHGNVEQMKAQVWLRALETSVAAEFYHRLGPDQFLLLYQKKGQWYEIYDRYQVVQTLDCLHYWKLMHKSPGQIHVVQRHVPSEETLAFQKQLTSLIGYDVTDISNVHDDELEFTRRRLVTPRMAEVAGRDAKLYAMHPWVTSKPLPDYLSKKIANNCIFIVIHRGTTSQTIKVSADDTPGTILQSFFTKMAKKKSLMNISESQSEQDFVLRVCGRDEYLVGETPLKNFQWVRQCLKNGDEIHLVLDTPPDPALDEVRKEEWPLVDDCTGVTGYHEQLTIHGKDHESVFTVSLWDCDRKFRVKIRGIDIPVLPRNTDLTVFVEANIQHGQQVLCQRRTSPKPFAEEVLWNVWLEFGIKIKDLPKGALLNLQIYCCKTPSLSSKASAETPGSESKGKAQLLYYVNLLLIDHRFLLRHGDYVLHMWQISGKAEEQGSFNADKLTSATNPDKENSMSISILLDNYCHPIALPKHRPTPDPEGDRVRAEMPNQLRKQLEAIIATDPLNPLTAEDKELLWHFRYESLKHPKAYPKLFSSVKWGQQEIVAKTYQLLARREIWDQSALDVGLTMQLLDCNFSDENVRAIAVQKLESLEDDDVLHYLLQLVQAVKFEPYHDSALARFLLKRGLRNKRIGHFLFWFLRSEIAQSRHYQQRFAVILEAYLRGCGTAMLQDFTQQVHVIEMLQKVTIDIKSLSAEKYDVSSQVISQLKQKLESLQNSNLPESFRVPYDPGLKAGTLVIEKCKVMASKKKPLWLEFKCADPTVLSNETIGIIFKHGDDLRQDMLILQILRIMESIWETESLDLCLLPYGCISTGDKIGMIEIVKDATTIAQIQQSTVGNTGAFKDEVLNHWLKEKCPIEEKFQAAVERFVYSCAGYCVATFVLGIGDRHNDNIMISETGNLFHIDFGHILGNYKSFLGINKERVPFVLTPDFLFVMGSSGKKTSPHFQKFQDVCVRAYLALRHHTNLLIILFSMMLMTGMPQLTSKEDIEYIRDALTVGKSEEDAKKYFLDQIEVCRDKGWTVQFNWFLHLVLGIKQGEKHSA
T4 sequence (O00329 whole entry): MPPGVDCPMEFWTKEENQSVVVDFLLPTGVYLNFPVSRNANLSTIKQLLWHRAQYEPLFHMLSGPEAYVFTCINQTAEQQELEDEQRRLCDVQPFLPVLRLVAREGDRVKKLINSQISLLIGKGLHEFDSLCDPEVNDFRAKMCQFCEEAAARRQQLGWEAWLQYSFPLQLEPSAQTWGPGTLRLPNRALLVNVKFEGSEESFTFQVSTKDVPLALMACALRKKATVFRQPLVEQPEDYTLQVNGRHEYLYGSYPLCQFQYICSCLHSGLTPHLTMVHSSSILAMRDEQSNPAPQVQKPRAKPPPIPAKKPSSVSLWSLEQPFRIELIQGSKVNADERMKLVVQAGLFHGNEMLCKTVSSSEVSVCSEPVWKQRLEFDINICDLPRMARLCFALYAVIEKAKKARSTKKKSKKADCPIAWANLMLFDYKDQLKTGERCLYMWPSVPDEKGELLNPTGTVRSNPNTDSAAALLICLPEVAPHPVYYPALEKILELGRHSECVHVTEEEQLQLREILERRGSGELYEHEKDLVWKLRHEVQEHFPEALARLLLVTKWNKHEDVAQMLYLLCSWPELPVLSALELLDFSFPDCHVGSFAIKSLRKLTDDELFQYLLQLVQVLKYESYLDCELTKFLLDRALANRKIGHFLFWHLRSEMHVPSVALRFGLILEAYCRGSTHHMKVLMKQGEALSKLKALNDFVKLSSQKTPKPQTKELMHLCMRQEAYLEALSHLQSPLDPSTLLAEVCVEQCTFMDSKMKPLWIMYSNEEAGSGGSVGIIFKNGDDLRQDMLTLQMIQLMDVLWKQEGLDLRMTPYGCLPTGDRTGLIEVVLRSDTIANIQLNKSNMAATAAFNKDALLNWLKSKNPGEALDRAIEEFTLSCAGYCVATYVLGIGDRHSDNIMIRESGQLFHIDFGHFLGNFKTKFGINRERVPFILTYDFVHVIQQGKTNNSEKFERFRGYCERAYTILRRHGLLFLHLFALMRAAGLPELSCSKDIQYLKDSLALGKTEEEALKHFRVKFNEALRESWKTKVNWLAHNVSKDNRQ
T4 sequence (P27986 whole entry partner): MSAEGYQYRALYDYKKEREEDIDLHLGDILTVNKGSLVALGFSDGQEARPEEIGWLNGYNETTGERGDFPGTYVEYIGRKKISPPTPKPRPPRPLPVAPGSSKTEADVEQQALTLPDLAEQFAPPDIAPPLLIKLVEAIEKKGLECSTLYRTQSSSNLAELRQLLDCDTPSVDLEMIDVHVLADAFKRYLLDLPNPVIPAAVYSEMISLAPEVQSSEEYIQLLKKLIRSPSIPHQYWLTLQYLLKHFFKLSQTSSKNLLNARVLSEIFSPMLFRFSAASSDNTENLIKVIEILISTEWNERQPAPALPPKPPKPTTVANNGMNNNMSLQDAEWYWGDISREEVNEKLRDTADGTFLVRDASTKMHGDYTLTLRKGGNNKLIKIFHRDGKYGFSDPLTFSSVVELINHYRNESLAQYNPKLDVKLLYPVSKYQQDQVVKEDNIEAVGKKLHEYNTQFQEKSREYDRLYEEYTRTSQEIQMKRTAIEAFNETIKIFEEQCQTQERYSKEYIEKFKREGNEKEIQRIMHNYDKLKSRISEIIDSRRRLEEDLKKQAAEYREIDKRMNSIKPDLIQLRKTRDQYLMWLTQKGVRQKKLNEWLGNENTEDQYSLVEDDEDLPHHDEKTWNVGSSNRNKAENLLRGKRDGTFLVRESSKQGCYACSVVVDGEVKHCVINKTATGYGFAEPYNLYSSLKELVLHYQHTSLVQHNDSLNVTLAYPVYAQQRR
RAJI p110 δ, sequence (O00329 whole entry): as the sequence (O00329 whole entry) above
RAJI p110 δ, sequence (P27986 whole entry partner): as the sequence (P27986 whole entry partner) above
T1 sequence (P48736 whole entry): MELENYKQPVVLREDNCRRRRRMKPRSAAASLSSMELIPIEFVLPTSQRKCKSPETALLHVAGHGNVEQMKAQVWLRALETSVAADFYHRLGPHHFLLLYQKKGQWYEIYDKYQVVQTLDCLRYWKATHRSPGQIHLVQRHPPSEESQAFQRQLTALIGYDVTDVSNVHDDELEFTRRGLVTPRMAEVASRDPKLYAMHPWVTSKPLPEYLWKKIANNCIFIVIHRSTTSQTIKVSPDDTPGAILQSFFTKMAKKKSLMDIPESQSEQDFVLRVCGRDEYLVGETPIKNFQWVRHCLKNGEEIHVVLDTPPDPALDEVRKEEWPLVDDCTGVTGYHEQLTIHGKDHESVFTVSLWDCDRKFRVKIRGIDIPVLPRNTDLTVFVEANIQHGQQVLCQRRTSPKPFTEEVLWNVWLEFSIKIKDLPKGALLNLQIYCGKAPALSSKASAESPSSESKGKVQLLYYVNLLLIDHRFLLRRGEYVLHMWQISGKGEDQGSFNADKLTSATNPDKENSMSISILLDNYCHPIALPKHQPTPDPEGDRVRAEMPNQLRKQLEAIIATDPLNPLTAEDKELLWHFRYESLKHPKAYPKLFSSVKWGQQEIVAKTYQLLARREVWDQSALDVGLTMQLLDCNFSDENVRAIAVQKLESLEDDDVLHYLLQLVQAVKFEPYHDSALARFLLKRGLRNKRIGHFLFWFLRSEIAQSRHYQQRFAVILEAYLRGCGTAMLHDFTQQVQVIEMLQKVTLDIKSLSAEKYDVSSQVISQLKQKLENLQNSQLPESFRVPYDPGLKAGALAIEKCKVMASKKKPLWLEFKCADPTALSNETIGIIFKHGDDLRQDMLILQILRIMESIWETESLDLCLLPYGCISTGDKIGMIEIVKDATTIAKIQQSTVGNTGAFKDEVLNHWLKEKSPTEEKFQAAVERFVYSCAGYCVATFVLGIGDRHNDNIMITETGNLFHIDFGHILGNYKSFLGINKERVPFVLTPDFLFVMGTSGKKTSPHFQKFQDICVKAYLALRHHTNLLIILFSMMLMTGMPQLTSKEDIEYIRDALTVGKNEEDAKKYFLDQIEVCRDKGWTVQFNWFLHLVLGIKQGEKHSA

Row | pIC50 (PI3K γ) | pIC50 (Raw264.7 p110 γ) | pIC50 (RAJI p110 δ) | pIC50 (PI3K α) | pIC50 (PI3K δ) | pIC50 (PI3K β) | Compound
1 | 5.00 to 6.00 | > 7.00 | 6.00 to 7.00 | < 5.00 | < 5.00 | < 5.00 | COc1cc(-c2cccc3cc(C(C)NC(=O)c4c(N)nn5cccnc45)c(-c4ccccc4)nc23)ccn1 (stereo not shown) [Compound 219]
2 | > 7.00 | > 7.00 | > 7.00 | 5.00 to 6.00 | 5.00 to 6.00 | 5.00 to 6.00 | CC#Cc1cccc2cc([C@H](C)NC(=O)c3c(N)nn4cccnc34)n(-c3ccccc3)c(=O)c12 [Compound 167]
3 | 5.00 to 6.00 | 6.00 to 7.00 | 6.00 to 7.00 | < 5.00 | 5.00 to 6.00 | 5.00 to 6.00 | C[C@H](NC(=O)c1c(N)nn2cccnc12)c1cc2ccsc2c(=O)n1-c1ccccc1 [Compound 198]
4 | 5.00 to 6.00 | 5.00 to 6.00 | > 7.00 | < 5.00 | 6.00 to 7.00 | < 5.00 | C[C@H](NC(=O)c1nccnc1N)c1cc2cccc(-c3cc[nH]n3)c2c(=O)n1-c1ccccc1 [Compound 59]
5 | 5.00 to 6.00 | 6.00 to 7.00 | 5.00 to 6.00 | < 5.00 | < 5.00 | < 5.00 | C[C@H](NC(=O)c1c(N)nn2cccnc12)c1cc2cccc(N(C)C)c2c(=O)n1-c1ccccc1 [Compound 180]
6 | 6.00 to 7.00 | > 7.00 | > 7.00 | 5.00 to 6.00 | 5.00 to 6.00 | 5.00 to 6.00 | COc1cc(-c2cccc3cc([C@H](C)NC(=O)c4c(N)nn5cccnc45)n(-c4ccccc4)c(=O)c23)ccn1 [Compound 116]
7 | 5.00 to 6.00 | 6.00 to 7.00 | 6.00 to 7.00 | – | 6.00 to 7.00 | 5.00 to 6.00 | C[C@H](NC(=O)c1cnc2cccnn12)c1cc2cccc(Cl)c2c(=O)n1-c1ccccc1 [Compound 13]
8 | 6.00 to 7.00 | > 7.00 | 6.00 to 7.00 | – | 5.00 to 6.00 | 5.00 to 6.00 | C[C@H](NC(=O)c1nc(-c2cccc(S(C)(=O)=O)c2)cnc1N)c1cc2cccc(Cl)c2c(=O)n1-c1ccccc1 [Compound 84]

The remaining lines, values behind:

Row | Compound | pIC50 (PI3K γ) | pIC50 (Raw264.7 p110 γ) | pIC50 (RAJI p110 δ) | pIC50 (PI3K α) | pIC50 (PI3K δ) | pIC50 (PI3K β)
9 | C[C@H](NC(=O)c1nc(-c2cccc(NS(=O)(=O)N(C)C)c2)cnc1N)c1cc2cccc(Cl)c2c(=O)n1-c1ccccc1 [Compound 99] | > 7.00 | > 7.00 | > 7.00 | 5.00 to 6.00 | 6.00 to 7.00 | 6.00 to 7.00
10 | C[C@H](NC(=O)c1cncc2cccnc12)c1cc2cccc(Cl)c2c(=O)n1-c1ccc(F)cc1 [Compound 65] | 5.00 to 6.00 | > 7.00 | > 7.00 | 5.00 to 6.00 | 5.00 to 6.00 | 5.00 to 6.00
11 | C[C@H](NC(=O)c1c(N)nn2cccnc12)c1cc2cccc(N3CCOCC3)c2c(=O)n1-c1ccccc1 [Compound 184] | 5.00 to 6.00 | 6.00 to 7.00 | 5.00 to 6.00 | < 5.00 | < 5.00 | < 5.00
12 | CC(C)Oc1ccc(-c2cnc(N)c(C(=O)N[C@@H](C)c3cc4cccc(Cl)c4c(=O)n3-c3ccccc3)n2)cn1 [Compound 98] | 5.00 to 6.00 | 6.00 to 7.00 | 6.00 to 7.00 | < 5.00 | 5.00 to 6.00 | < 5.00
13 | C[C@H](NC(=O)c1c(N)nn2cccnc12)c1cc2cccc(C3CC3)c2c(=O)n1-c1ccccc1 [Compound 193] | 5.00 to 6.00 | > 7.00 | 6.00 to 7.00 | < 5.00 | 5.00 to 6.00 | < 5.00
14 | C=CC(=O)NCC#Cc1cccc2cc([C@H](C)NC(=O)c3c(N)nn4cccnc34)n(-c3ccccc3)c(=O)c12 [Compound 155] | > 7.00 | > 7.00 | > 7.00 | 5.00 to 6.00 | 6.00 to 7.00 | 5.00 to 6.00
15 | C[C@H](NC(=O)c1nccnc1N)c1cc2cccc(-c3cnn(C)c3)c2c(=O)n1-c1ccccc1 [Compound 54, (S)-3-amino-N-(1-(8-(1-methyl-1H-pyrazol-4-yl)-1-oxo-2-phenyl-1,2-dihydroisoquinolin-3-yl)ethyl)pyrazine-2-carboxamide] | 6.00 to 7.00 | 6.00 to 7.00 | > 7.00 | < 5.00 | 5.00 to 6.00 | < 5.00
16 | C[C@H](NC(=O)c1nc(C#N)cnc1N)c1cc2cccc(Cl)c2c(=O)n1-c1ccccc1 [Compound 111] | 6.00 to 7.00 | 6.00 to 7.00 | > 7.00 | < 5.00 | 6.00 to 7.00 | 6.00 to 7.00
17 | CC(C)Oc1ccc(-c2cnc(N)c(C(=O)N[C@@H](C)c3cc4cccc(Cl)c4c(=O)n3-c3ccccc3)n2)cc1 [Compound 106] | 5.00 to 6.00 | 6.00 to 7.00 | < 5.00 | < 5.00 | < 5.00 | < 5.00
18 | C[C@H](NC(=O)c1c(N)nn2cccnc12)c1cc2cccc(-c3cncc(NS(C)(=O)=O)c3)c2c(=O)n1-c1ccccc1 [Compound 120] | 6.00 to 7.00 | 6.00 to 7.00 | > 7.00 | 5.00 to 6.00 | 6.00 to 7.00 | < 5.00
19 | C[C@H](NC(=O)c1nc(-c2cccc(O)c2)cnc1N)c1cc2cccc(Cl)c2c(=O)n1-c1ccccc1 [Compound 104] | 5.00 to 6.00 | 6.00 to 7.00 | 6.00 to 7.00 | < 5.00 | < 5.00 | 5.00 to 6.00
20 | C[C@H](NC(=O)c1c(N)nn2cccnc12)c1cc2cccc(Cl)c2c(=O)n1C1CCCCC1 [Compound 196] | 5.00 to 6.00 | > 7.00 | > 7.00 | 5.00 to 6.00 | 5.00 to 6.00 | 5.00 to 6.00
21 | C[C@H](NC(=O)c1c(N)nn2cccnc12)c1cc2cccc(O)c2c(=O)n1-c1ccccc1 [Compound 132] | 5.00 to 6.00 | > 7.00 | 6.00 to 7.00 | < 5.00 | < 5.00 | 5.00 to 6.00
22 | CC(=O)NCC#Cc1cccc2cc([C@H](C)NC(=O)c3c(N)nn4cccnc34)n(-c3ccccc3)c(=O)c12 [Compound 165] | > 7.00 | > 7.00 | > 7.00 | 5.00 to 6.00 | 5.00 to 6.00 | 5.00 to 6.00
